Experimental data reported in paper PMC7411887, “New Paracyclophanylthiazoles with Anti-Leukemia Activity: Design, Synthesis, Molecular Docking, and Mechanistic Studies” (Molecules, 2020).
Read-outs that look alike come from different tables or passages of the source.

Assays:
CCRF-CEM = assay: NCI five-dose assay; assay type: cell-based; conditions: Homo sapiens, Leukemia CCRF-CEM
K-562 = assay: NCI five-dose assay; assay type: cell-based; conditions: Leukemia K-562
MOLT-4 = assay: NCI five-dose assay; assay type: cell-based; conditions: Leukemia MOLT-4
RPMI-8226 = assay: NCI five-dose assay; assay type: cell-based; conditions: Leukemia RPMI-8226
A549/ATCC = assay: NCI five-dose assay; assay type: cell-based; conditions: Non-Small-Cell Lung Cancer A549/ATCC
HOP-92 = assay: NCI five-dose assay; assay type: cell-based; conditions: Non-Small-Cell Lung Cancer HOP-92
HT29 = assay: NCI five-dose assay; assay type: cell-based; conditions: Colon Cancer HT29
SF-268 = assay: NCI five-dose assay; assay type: cell-based; conditions: Homo sapiens, CNS Cancer SF-268
SNB-75 = assay: NCI five-dose assay; assay type: cell-based; conditions: CNS Cancer SNB-75
U251 = assay: NCI five-dose assay; assay type: cell-based; conditions: CNS Cancer U251
LOX IMVI = assay: NCI five-dose assay; assay type: cell-based; conditions: Homo sapiens, Melanoma LOX IMVI
M14 = assay: NCI five-dose assay; assay type: cell-based; conditions: Homo sapiens, Melanoma M14
MDA-MB-435 = assay: NCI five-dose assay; assay type: cell-based; conditions: Homo sapiens, Melanoma MDA-MB-435
SK-MEL-28 = assay: NCI five-dose assay; assay type: cell-based; conditions: Melanoma SK-MEL-28
UACC-257 = assay: NCI five-dose assay; assay type: cell-based; conditions: Melanoma UACC-257
UACC-62 = assay: NCI five-dose assay; assay type: cell-based; conditions: Melanoma UACC-62
IGROV1 = assay: NCI five-dose assay; assay type: cell-based; conditions: Ovarian Cancer IGROV1
OVCAR-5 = assay: NCI five-dose assay; assay type: cell-based; conditions: Ovarian Cancer OVCAR-5
CAKI-1 = assay: NCI five-dose assay; assay type: cell-based; conditions: Renal Cancer CAKI-1
SN12C = assay: NCI five-dose assay; assay type: cell-based; conditions: Renal Cancer SN12C
UO-31 = assay: NCI five-dose assay; assay type: cell-based; conditions: Renal Cancer UO-31
PC-3 = assay: NCI five-dose assay; assay type: cell-based; conditions: Prostate Cancer PC-3
DU-145 = assay: NCI five-dose assay; assay type: cell-based; conditions: Homo sapiens, Prostate Cancer DU-145
MDA-MB-231/ATCC = assay: NCI five-dose assay; assay type: cell-based; conditions: Breast Cancer MDA-MB-231/ATCC
HS 578T = assay: NCI five-dose assay; assay type: cell-based; conditions: Breast Cancer HS 578T
T-47D = assay: NCI five-dose assay; assay type: cell-based; conditions: Breast Cancer T-47D
[1] = test system: 60 human tumor cell lines; assay: NCI five-dose assay, full panel; assay type: cell-based; conditions: for GI50: Homo sapiens
Description: The outcomes were used to form log concentration vs. percentage growth inhibition curves and three response parameters (GI50, total growth inhibition (TGI), and LC50) were calculated for each cell line (Table 2).
The criterion for selectivity of a compound depends upon the ratio obtained by dividing the full-panel MID (the average sensitivity of all cell lines toward the test agent) (μM) by the individual subpanel MIDs (μM).

SR cancer cell line = assay: Annexin V/PI flow cytometry; assay type: cell-based, human; conditions: 24 h, at IC50, second value printed in the panel of Figure 11
Description: Figure 11 Contour diagram of annexin V/PI flow cytometry against SR cancer cell line. […] The test was repeated three times. Following incubation for 24 h, cells were analyzed by flow cytometry after double staining with annexin V/PI.

[2] = test system: P-glycoprotein (Pgp) in MDR-SR Leukemia cell line; assay: Multidrug resistance assay (Pgp ELISA); assay type: cell-based, human; conditions: relative to control
[3] = read-out: GI50 Concentration/Cell Line
[4] = Homo sapiens, read-out: GI50 Concentration/Cell Line
[5] = Homo sapiens, read-out: LC50 (the source's name)

Q: How did the LC50 (CCRF-CEM) turn out when COC(=O)C=C1SC(=NNC(=O)c2cc3ccc2CCc2ccc(cc2)CC3)N(c2ccccc2)C1=O [Compound 3a] was run?
A: > 100 µM

Q: What about the GI50 (CCRF-CEM; [3]) of the same molecule?
A: 2.71 µM

Q: And the GI50 (K-562; Homo sapiens, K562, read-out: GI50 Concentration/Cell Line)?
A: 3.15 µM

Q: And the CC50 (K-562; Homo sapiens, K562, read-out: LC50 (the source's name))?
A: > 100 µM

Q: And the “TGI Concentration/Cell Line” value (K-562)?
A: >100 µM

Q: What about the LC50 (concentration killing 50% of cells) (MOLT-4; Homo sapiens) of the same molecule?
A: > 100 µM

Q: What about the GI50 (MOLT-4; [4]) of the same molecule?
A: 3.12 µM

Q: What about the “TGI Concentration/Cell Line” value (MOLT-4) of the same molecule?
A: >100 µM

Q: And the LC50 (RPMI-8226; Homo sapiens)?
A: > 100 µM

Q: What about the GI50 (RPMI-8226; [4]) of the same molecule?
A: 2.15 µM

Q: And the “TGI Concentration/Cell Line” value (RPMI-8226)?
A: 5.69 µM

Q: What about the GI50 (A549/ATCC; [4]) of the same molecule?
A: 2.83 µM

Q: What about the CC50 (A549/ATCC; [5]) of the same molecule?
A: > 100 µM

Q: What about the “TGI Concentration/Cell Line” value (A549/ATCC) of the same molecule?
A: 8.00 µM

Q: What about the GI50 (HOP-92; [4]) of the same molecule?
A: 1.91 µM

Q: What about the CC50 (HOP-92; [5]) of the same molecule?
A: > 100 µM

Q: And the “TGI Concentration/Cell Line” value (HOP-92)?
A: 9.14 µM

Q: What about the “TGI Concentration/Cell Line” value (HT29) of the same molecule?
A: 4.07 µM

Q: What about the LC50 (HT29; Homo sapiens, HT-29) of the same molecule?
A: 8.56 µM

Q: And the GI50 (HT29; Homo sapiens, HT-29, read-out: GI50 Concentration/Cell Line)?
A: 1.93 µM

Q: What about the GI50 (SF-268; [3]) of the same molecule?
A: 3.09 µM

Q: What about the CC50 (SF-268; read-out: LC50 (the source's name)) of the same molecule?
A: > 100 µM

Q: What about the “TGI Concentration/Cell Line” value (SNB-75) of the same molecule?
A: >100 µM

Q: What about the LC50 (SNB-75; Homo sapiens) of the same molecule?
A: > 100 µM

Q: And the GI50 (SNB-75; [4])?
A: 5.44 µM

Q: And the “TGI Concentration/Cell Line” value (U251)?
A: 4.00 µM

Q: What about the GI50 (U251; Homo sapiens, U-251, read-out: GI50 Concentration/Cell Line) of the same molecule?
A: 1.89 µM

Q: And the CC50 (U251; Homo sapiens, U-251, read-out: LC50 (the source's name))?
A: 8.47 µM

Q: What about the LC50 (concentration killing 50% of cells) (LOX IMVI) of the same molecule?
A: 6.75 µM

Q: What about the GI50 (LOX IMVI; [3]) of the same molecule?
A: 1.69 µM

Q: And the LC50 (M14)?
A: > 100 µM

Q: What about the GI50 (M14; [3]) of the same molecule?
A: 3.27 µM

Q: And the LC50 (concentration causing 50% net cell kill) (MDA-MB-435)?
A: > 100 µM

Q: And the GI50 (MDA-MB-435; [3])?
A: 5.44 µM

Q: And the LC50 (concentration causing 50% net cell kill) (SK-MEL-28; Homo sapiens)?
A: > 100 µM

Q: What about the GI50 (SK-MEL-28; [4]) of the same molecule?
A: 2.97 µM

Q: What about the “TGI Concentration/Cell Line” value (SK-MEL-28) of the same molecule?
A: 9.87 µM

Q: And the LC50 (UACC-257; Homo sapiens)?
A: > 100 µM

Q: What about the GI50 (UACC-257; [4]) of the same molecule?
A: 5.14 µM

Q: What about the “TGI Concentration/Cell Line” value (UACC-257) of the same molecule?
A: >100 µM

Q: What about the GI50 (UACC-62; [4]) of the same molecule?
A: 1.96 µM

Q: And the CC50 (UACC-62; [5])?
A: 9.02 µM

Q: What about the “TGI Concentration/Cell Line” value (UACC-62) of the same molecule?
A: 4.21 µM

Q: What about the LC50 (NCI lethal concentration, 50% net cell kill) (IGROV1; Homo sapiens, IGROV-1) of the same molecule?
A: 6.44 µM

Q: What about the GI50 (IGROV1; Homo sapiens, IGROV-1, read-out: GI50 Concentration/Cell Line) of the same molecule?
A: 1.66 µM

Q: What about the “TGI Concentration/Cell Line” value (IGROV1) of the same molecule?
A: 3.27 µM

Q: And the LC50 (50% lethal concentration) (OVCAR-5; Homo sapiens)?
A: 7.68 µM

Q: And the GI50 (OVCAR-5; [4])?
A: 1.92 µM

Q: What about the “TGI Concentration/Cell Line” value (OVCAR-5) of the same molecule?
A: 3.84 µM

Q: What about the GI50 (CAKI-1; [4]) of the same molecule?
A: 1.52 µM

Q: What about the CC50 (CAKI-1; [5]) of the same molecule?
A: 9.78 µM

Q: And the “TGI Concentration/Cell Line” value (CAKI-1)?
A: 3.00 µM

Q: What about the LC50 (SN12C; Homo sapiens) of the same molecule?
A: > 100 µM

Q: And the GI50 (SN12C; [4])?
A: 2.27 µM

Q: What about the “TGI Concentration/Cell Line” value (SN12C) of the same molecule?
A: 5.94 µM

Q: What about the LC50 (UO-31; Homo sapiens) of the same molecule?
A: 6.2 µM

Q: What about the GI50 (UO-31; [4]) of the same molecule?
A: 1.53 µM

Q: What about the “TGI Concentration/Cell Line” value (UO-31) of the same molecule?
A: 3.08 µM

Q: And the LC50 (PC-3; Homo sapiens)?
A: 7.7 µM

Q: And the GI50 (PC-3; [4])?
A: 1.71 µM

Q: What about the “TGI Concentration/Cell Line” value (PC-3) of the same molecule?
A: 3.63 µM

Q: And the LC50 (DU-145)?
A: > 100 µM

Q: And the GI50 (DU-145; [3])?
A: 5.11 µM

Q: And the “TGI Concentration/Cell Line” value (MDA-MB-231/ATCC)?
A: 7.46 µM

Q: What about the LC50 (MDA-MB-231/ATCC; Homo sapiens) of the same molecule?
A: > 100 µM

Q: And the GI50 (MDA-MB-231/ATCC; [4])?
A: 2.63 µM

Q: And the “TGI Concentration/Cell Line” value (HS 578T)?
A: >100 µM

Q: And the GI50 (HS 578T; [4])?
A: 3.49 µM

Q: What about the CC50 (HS 578T; [5]) of the same molecule?
A: > 100 µM

Q: What about the “TGI Concentration/Cell Line” value (T-47D) of the same molecule?
A: 3.65 µM

Q: What about the GI50 (T-47D; Homo sapiens, T47D, read-out: GI50 Concentration/Cell Line) of the same molecule?
A: 1.54 µM

Q: What about the CC50 (T-47D; Homo sapiens, T47D, read-out: LC50 (the source's name)) of the same molecule?
A: 8.68 µM

Q: And the GI50 ([1]; full panel, read-out: MID^a (GI50, average sensitivity of all cell lines))?
A: 2.38 µM

Q: And the GI50 ([1]; nine subpanels, read-out: GI50 range over tested cell lines)?
A: 1.52 to 7.56 µM

Q: And the MID^c (TGI, average sensitivity of all cell lines) ([1]; full panel)?
A: 21.1 µM

Q: And the “percentage of cells in late apoptosis (upper right quadrant)” value (SR cancer cell line)?
A: 19%

Q: And the “Pgp-Mediated MDR Fold Change” value [2]?
A: 1.15 fold
